Positions of bridges follow the written chain, without caps; N, C: chain ends. Non-standard residues stand in square brackets, D forms with d. Residues, ends and D or L forms follow the SMILES beside them. hArg = N=C(N)NCCCC[C@H](N)C(=O)O; Mpa = O=C(O)CCS
Key:
[1] = species on record: Homo sapiens; assay: Liver toxicity in human assessed as induction of drug-induced liver injury by measuring severity class index
[2] = species on record: Homo sapiens; assay: Liver toxicity in human assessed as induction of drug-induced liver injury by measuring verified drug-induced liver injury concern status
For DILI severity class in this document: key of the grades not given here.

Row | SMILES | DILI_severity_class [1] | DILI_Concern [2]
1 | NS(=O)(=O)c1cc(Cl)c(Cl)c(S(N)(=O)=O)c1 [DICHLORPHENAMIDE] | 0 | No-Dili-Concern
2 | O=C(O)Cc1ccccc1Nc1c(Cl)cccc1Cl [DICLOFENAC] | 8 | Most-Dili-Concern
3 | Cc1onc(-c2c(Cl)cccc2Cl)c1C(=O)N[C@@H]1C(=O)N2[C@@H]1SC(C)(C)[C@@H]2C(=O)O [DICLOXACILLIN] | 3 | Less-Dili-Concern
4 | CCN(CC)CCOC(=O)C1(C2CCCCC2)CCCCC1 [DICYCLOMINE] | 0 | No-Dili-Concern
5 | O=c1[nH]cnc2c1ncn2[C@H]1CC[C@@H](CO)O1 [DIDANOSINE] | 8 | Most-Dili-Concern
6 | CCN(CC)C(C)C(=O)c1ccccc1 (stereo not given) [DIETHYLPROPION] | 0 | No-Dili-Concern
7 | O=C(O)c1cc(-c2ccc(F)cc2F)ccc1O [DIFLUNISAL] | 8 | Most-Dili-Concern
8 | C[C@H]1O[C@@H](O[C@H]2[C@@H](O)C[C@H](O[C@H]3[C@@H](O)C[C@H](O[C@H]4CC[C@@]5(C)[C@H](CC[C@@H]6[C@@H]5C[C@@H](O)[C@]5(C)[C@@H](C7=CC(=O)OC7)CC[C@]65O)C4)O[C@@H]3C)O[C@@H]2C)C[C@H](O)[C@@H]1O [DIGOXIN] | 0 | No-Dili-Concern
9 | CN1C[C@H](C(=O)N[C@]2(C)O[C@@]3(O)[C@@H]4CCCN4C(=O)[C@H](Cc4ccccc4)N3C2=O)C[C@@H]2c3cccc4[nH]cc(c34)C[C@H]21 [DIHYDROERGOTAMINE] | 0 | No-Dili-Concern
10 | COc1ccc([C@@H]2Sc3ccccc3N(CCN(C)C)C(=O)[C@@H]2OC(C)=O)cc1 [DILTIAZEM] | 4 | Most-Dili-Concern
11 | CN(C)CCOC(c1ccccc1)c1ccccc1.Cn1c(=O)c2[nH]c(Cl)nc2n(C)c1=O [DIMENHYDRINATE] | 0 | No-Dili-Concern
12 | OCC(S)CS (stereo not given) [DIMERCAPROL] | 0 | No-Dili-Concern
13 | CN(C)CCOC(c1ccccc1)c1ccccc1 [DIPHENHYDRAMINE] | 0 | No-Dili-Concern
14 | CCOC(=O)C1(c2ccccc2)CCN(CCC(C#N)(c2ccccc2)c2ccccc2)CC1 [DIPHENOXYLATE] | 0 | No-Dili-Concern
15 | CC(C)N(CCC(C(N)=O)(c1ccccc1)c1ccccn1)C(C)C (stereo not given) [DISOPYRAMIDE] | 2 | Less-Dili-Concern
16 | CC(CCc1ccc(O)cc1)NCCc1ccc(O)c(O)c1 (stereo not given) [DOBUTAMINE] | 0 | No-Dili-Concern
17 | CC(=O)O[C@@]12CO[C@@H]1C[C@H](O)[C@@]1(C)C(=O)[C@H](O)C3=C(C)[C@@H](OC(=O)[C@H](O)[C@@H](NC(=O)OC(C)(C)C)c4ccccc4)C[C@@](O)([C@@H](OC(=O)c4ccccc4)[C@H]21)C3(C)C [DOCETAXEL ANHYDROUS] | 3 | Less-Dili-Concern
18 | CN(CCOc1ccc(NS(C)(=O)=O)cc1)CCc1ccc(NS(C)(=O)=O)cc1 [DOFETILIDE] | 0 | No-Dili-Concern
19 | O=C(O[C@@H]1C[C@@H]2C[C@H]3C[C@H](C1)N2CC3=O)c1c[nH]c2ccccc12 [DOLASETRON] | 3 | Ambiguous-Dili-Concern
20 | COc1cc2c(cc1OC)C(=O)C(CC1CCN(Cc3ccccc3)CC1)C2 (stereo not given) [DONEPEZIL] | 3 | Less-Dili-Concern
21 | NCCc1ccc(O)c(O)c1 [DOPAMINE] | 0 | No-Dili-Concern
22 | C[C@@H](O)[C@H]1C(=O)N2C(C(=O)O)=C(S[C@@H]3CN[C@H](CNS(N)(=O)=O)C3)[C@H](C)[C@H]12 [DORIPENEM] | 3 | Ambiguous-Dili-Concern
23 | CCN1CC(CCN2CCOCC2)C(c2ccccc2)(c2ccccc2)C1=O (stereo not given) [DOXAPRAM] | 0 | No-Dili-Concern
24 | COc1cc2nc(N3CCN(C(=O)C4COc5ccccc5O4)CC3)nc(N)c2cc1OC (stereo not given) [DOXAZOSIN] | 3 | Ambiguous-Dili-Concern
25 | CN(C)CCC=C1c2ccccc2COc2ccccc21 [DOXEPIN] | 4 | Less-Dili-Concern
26 | C=C1/C(=C\C=C2/CCC[C@]3(C)[C@@H]([C@H](C)/C=C/[C@H](C)C(C)C)CC[C@@H]23)C[C@@H](O)C[C@@H]1O [DOXERCALCIFEROL] | 3 | Ambiguous-Dili-Concern
27 | COc1cccc2c1C(=O)c1c(O)c3c(c(O)c1C2=O)C[C@@](O)(C(=O)CO)C[C@@H]3O[C@H]1C[C@H](N)[C@H](O)[C@H](C)O1 [DOXORUBICIN] | 3 | Less-Dili-Concern
28 | C[C@H]1c2cccc(O)c2C(=O)C2=C(O)[C@]3(O)C(=O)C(C(N)=O)=C(O)[C@@H](N(C)C)[C@@H]3[C@@H](O)[C@@H]21.O [DOXYCYCLINE] | 3 | Less-Dili-Concern

Row | SMILES | DILI_severity_class [1] | DILI_Concern [2]
29 | CN(C)CCOC(C)(c1ccccc1)c1ccccn1 (stereo not given) [DOXYLAMINE] | 0 | No-Dili-Concern
30 | CCCCCc1cc(O)c2c(c1)OC(C)(C)[C@@H]1CCC(C)=C[C@@H]21 [DRONABINOL] | 3 | Ambiguous-Dili-Concern
31 | CCCCc1oc2ccc(NS(C)(=O)=O)cc2c1C(=O)c1ccc(OCCCN(CCCC)CCCC)cc1 [DRONEDARONE] | 7 | Most-Dili-Concern
32 | CN1c2c(oc(=O)n(-c3ccccn3)c2=O)-c2ccccc2S1(=O)=O [DROXICAM] | 8 | Most-Dili-Concern
33 | CNCC[C@H](Oc1cccc2ccccc12)c1cccs1 [DULOXETINE] | 8 | Most-Dili-Concern
34 | C[C@]12C=CC(=O)N[C@@H]1CC[C@@H]1[C@@H]2CC[C@]2(C)[C@@H](C(=O)Nc3cc(C(F)(F)F)ccc3C(F)(F)F)CC[C@@H]12 [DUTASTERIDE] | 0 | No-Dili-Concern
35 | Cn1c(=O)c2c(ncn2CC(O)CO)n(C)c1=O (stereo not given) [DYPHYLLINE] | 0 | No-Dili-Concern
36 | NC(N)=Nc1nc(CSCCN/C=N/S(=O)(=O)c2ccc(Br)cc2)cs1 [EBROTIDINE] | 8 | Most-Dili-Concern
37 | O=C(O)CN(CCN(CC(=O)O)CC(=O)O)CC(=O)O [EDETIC ACID] | 3 | Ambiguous-Dili-Concern
38 | CC[N+](C)(C)c1cccc(O)c1 [EDROPHONIUM] | 0 | No-Dili-Concern
39 | O=C1Nc2ccc(Cl)cc2[C@@](C#CC2CC2)(C(F)(F)F)O1 [EFAVIRENZ] | 7 | Most-Dili-Concern
40 | CC1=NN(c2ccc(C)c(C)c2)C(=O)/C1=N\Nc1cccc(-c2cccc(C(=O)O)c2)c1O.NCCO.NCCO [ELTROMBOPAG OLAMINE] | 4 | Most-Dili-Concern
41 | Nc1nc(=O)n([C@@H]2CS[C@H](CO)O2)cc1F [EMTRICITABINE] | 2 | Ambiguous-Dili-Concern
42 | C[C@H](N[C@@H](CCc1ccccc1)C(=O)O)C(=O)N1CCC[C@H]1C(=O)O [ENALAPRILAT ANHYDROUS] | 7 | Ambiguous-Dili-Concern
43 | CCN(CC)C(=O)/C(C#N)=C/c1cc(O)c(O)c([N+](=O)[O-])c1 [ENTACAPONE] | 0 | Less-Dili-Concern
44 | CN[C@@H](C)[C@H](O)c1ccccc1 [EPHEDRINE] | 0 | No-Dili-Concern
45 | CNC[C@H](O)c1ccc(O)c(O)c1 [EPINEPHRINE] | 0 | No-Dili-Concern
46 | COc1cccc2c1C(=O)c1c(O)c3c(c(O)c1C2=O)C[C@@](O)(C(=O)CO)C[C@@H]3O[C@H]1C[C@H](N)[C@@H](O)[C@H](C)O1 [EPIRUBICIN] | 3 | Ambiguous-Dili-Concern
47 | COC(=O)[C@@H]1CC2=CC(=O)CC[C@]2(C)[C@@]23O[C@@H]2C[C@@]2(C)[C@@H](CC[C@@]24CCC(=O)O4)[C@H]13 [EPLERENONE] | 4 | Ambiguous-Dili-Concern
48 | CCCCC[C@H](O)/C=C/[C@@H]1[C@H]2C/C(=C/CCCC(=O)O)O[C@H]2C[C@H]1O [EPOPROSTENOL] | 7 | Ambiguous-Dili-Concern
49 | CCCCc1ncc(/C=C(\Cc2cccs2)C(=O)O)n1Cc1ccc(C(=O)O)cc1 [EPROSARTAN] | 3 | Ambiguous-Dili-Concern
50 | N=C(N)NCCCC[C@@H]1NC(=O)CCSSC[C@@H](C(N)=O)NC(=O)[C@@H]2CCCN2C(=O)[C@H](Cc2c[nH]c3ccccc23)NC(=O)[C@H](CC(=O)O)NC(=O)CNC1=O [EPTIFIBATIDE] ([Mpa][hArg]GDWPC-NH2; disulfide 1-7) | 0 | No-Dili-Concern
51 | C=C1CC[C@H](O)C/C1=C/C=C1\CCC[C@]2(C)[C@@H]([C@H](C)/C=C/[C@H](C)C(C)C)CC[C@@H]12 [ERGOCALCIFEROL] | 0 | No-Dili-Concern
52 | C#Cc1cccc(Nc2ncnc3cc(OCCOC)c(OCCOC)cc23)c1 [ERLOTINIB] | 8 | Most-Dili-Concern
53 | CC[C@H]1OC(=O)[C@H](C)[C@@H](O[C@H]2C[C@@](C)(OC)[C@@H](O)[C@H](C)O2)[C@H](C)[C@@H](O[C@@H]2O[C@H](C)C[C@H](N(C)C)[C@H]2O)[C@](C)(O)C[C@@H](C)C(=O)[C@H](C)[C@@H](O)[C@]1(C)O [ERYTHROMYCIN] | 5 | Most-Dili-Concern
54 | CN(C)CCC[C@@]1(c2ccc(F)cc2)OCc2cc(C#N)ccc21 [ESCITALOPRAM] | 7 | Less-Dili-Concern
55 | COC(=O)CCc1ccc(OCC(O)CNC(C)C)cc1 (stereo not given) [ESMOLOL] | 0 | No-Dili-Concern

— ChEMBL document CHEMBL4028802, “DILIrank: the largest reference drug list ranked by the risk for developing drug-induced liver injury in humans” (Drug Discov Today, 2016)
